Measurements taken from patent US20250288571A1 (Nested Therapeutics, Inc., priority 2024, published 2025).
Several values for one entry are separate records, joined by “and”; a condition that tells them apart may be missing. Equal entries are not always repeated.

Assays:
pMEK [1] = test: pMEK AlphaLISA (MEK1 pS218/222), HCT116 cells, EGF stimulated; assay type: cell-based; conditions: Homo sapiens, HCT-116, 2 h compound, EGF 30 ng/ml 15 min
Method: (§1) Determination of pMEK IC50s
(§2) A549 cells were cultured in F12K/10% FBS media (ATCC CAT #21127022) and were seeded at 10000 cells/well and HCT116 cells were cultured in McCoy's 5A/10% FBS media (Gibco Cat #30-2007) were seeded at 15000 cells/well in 384 microplates (Corning CAT #3765). Cells were incubated overnight in a TC incubator. Compounds were serially diluted and added to cells for 2 h in a TC incubator. At the end of the 2 h EGF (R&D Systems 236-EG-200) was added at a final EGF concentration of 30 ng/ml and incubated for 15 minutes at 37° C. in a TC incubator. AlphaLisa (Perkin Elmer) was performed according to manufacturer's instructions (Perkin Elmer CAT #ALPHA.SF ULTRA MEK1 PS218/222). The percent (%) inhibition at each concentration of compound is calculated based on and relative to the AlphaLISA signal in the HPE and ZPE control wells contained within each assay plate. The ZPE control wells contain cells and DMSO as 0% inhibition, and the HPE control wells only contain cells and control compound (Sellekchem Staurosporin CAT #S1421) as 100% inhibition.

pMEK [2] = test: pMEK AlphaLISA (MEK1 pS218/222), A549 cells, EGF stimulated; assay type: cell-based; conditions: Homo sapiens, 2 h compound, EGF 30 ng/ml 15 min
Method: as §1, §2

HCT116 cells = test: HCT116 Cell Titer Glow assay (CTG); conditions: for IC50 / viability at 1000 µM: Homo sapiens, HCT-116, 72 h; for IC50: read-out: CTG IC50 (nM) Cell Line: HCT116.20; for viability at 1000 µM: read-out: CTG % cell viability 1000 uM HCT116.20, HCT116 cells, 72 hours, 1000 uM
IPC298 cells = test: IPC298 Cell Titer Glow assay (CTG); conditions: for IC50: read-out: CTG IC50 (nM) Cell Line: IPC298.2
pERK Thr202/Tyr204 = test: pERK HTRF detection of pERK Thr202/Tyr204, HCT116 cells; assay type: cell-based; conditions: Homo sapiens, HCT-116, 2 h compound, numeric value
Method: pERK: Detection of pERK Thr202/Tyr204
A549 cultured in F-12K/10% FBS were seeded at 10000 cells/well, and HCT116 cultured in McCoy's 5A/10% FBS were seeded at 15000 cells/well cells into Corning 384-well plates, respectively. Cells were incubated overnight in a TC incubator. Compounds were serially diluted and added to cells for 2 h in a TC incubator. Cells were then lysed according to manufacture protocol (Cisbio CAT #: 64AERPEG). Cell lysate was mixed with phospho-ERK (Thr202/Tyr204) antibody solution at 5:1 (v:v). Lysate and antibody mixture were incubated overnight at room temperature. HTRF signal was read at two different wavelengths (665 nm and 620 nm) on a compatible HTRF reader.

[3] = percent cells remaining after treatment

SMILES: CNS(=O)(=O)Nc1nccc(Cc2cncc(OC)c2C)c1F [Example 24, ({3-fluoro-4-[(5-methoxy-4-methylpyridin-3-yl)methyl]pyridin-2-yl}sulfamoyl)(methyl)amine]
- IC50 (pMEK [1]; numeric value): > 100 nM
- IC50 (pMEK [2]): 10 to 100 nM
- IC50 (HCT116 cells): 100 to 500 nM
- IC50 (IPC298 cells; Homo sapiens, IPC-298, 72 h): < 10 nM

SMILES: CNS(=O)(=O)Nc1nccc(Cc2cncc(Nc3ccc(Cl)cc3F)c2)c1F [Example 18, 4-[[5-(4-chloro-2-fluoro-anilino)-3-pyridyl]methyl]-3-fluoro-N-(methylsulfamoyl)pyridin-2-amine]
- IC50 (pMEK [1]): < 10 nM
- IC50 (pMEK [2]): < 10 nM
- IC50 (HCT116 cells): 100 to 500 nM
- IC50 (IPC298 cells; Homo sapiens, IPC-298, 72 h): 10 to 100 nM

SMILES: CNS(=O)(=O)Nc1nccc(Cc2cncc(Nc3ccc(Cl)cc3F)c2C(F)(F)F)c1F [Example 38, N-(4-chloro-2-fluorophenyl)-5-({3-fluoro-2-[(methylsulfamoyl)amino]pyridin-4-yl}methyl)-4-(trifluoromethyl)pyridin-3-amine]
- IC50 (pMEK [1]): < 10 nM
- IC50 (pMEK [2]): < 10 nM
- IC50 (HCT116 cells): < 10 nM
- IC50 (IPC298 cells; Homo sapiens, IPC-298, 72 h): < 10 nM
- IC50 (pERK Thr202/Tyr204): 0.241 nM

SMILES: Cc1c(Cc2ccnc(S(C)(=O)=O)c2F)cncc1Nc1ccc(Cl)cc1F [Example 28, N-(4-chloro-2-fluorophenyl)-5-[(3-fluoro-2-methanesulfonylpyridin-4-yl)methyl]-4-methylpyridin-3-amine]
- IC50 (pMEK [1]): 10 to 100 nM
- IC50 (pMEK [2]): 10 to 100 nM
- IC50 (HCT116 cells): > 1000 nM
- IC50 (IPC298 cells; Homo sapiens, IPC-298, 72 h): 10 to 100 nM

SMILES: CNS(=O)(=O)Nc1nccc(Cc2cncc(Nc3ccc(OC)cc3F)c2C)c1F [Example 23, 5-({3-fluoro-2-[(methylsulfamoyl)amino]pyridin-4-yl}methyl)-N-(2-fluoro-4-methoxyphenyl)-4-methylpyridin-3-amine]
- IC50 (pMEK [1]): < 10 nM
- IC50 (pMEK [2]): < 10 nM
- IC50 (HCT116 cells): 10 to 100 nM

SMILES: CNS(=O)(=O)Nc1nccc(Cc2cncc(Nc3nc4c(cc3F)OCCO4)c2C)c1F [Example 41, 7-fluoro-N-[5-[[3-fluoro-2-(methylsulfamoylamino)-4-pyridyl]methyl]-4-methyl-3-pyridyl]-2,3-dihydro-[1,4]dioxino[2,3-b]pyridin-6-amine]
- IC50 (pMEK [1]): < 10 nM
- IC50 (pMEK [2]): < 10 nM
- IC50 (HCT116 cells): 100 to 500 nM
- IC50 (IPC298 cells; Homo sapiens, IPC-298, 72 h): 10 to 100 nM
- IC50 (pERK Thr202/Tyr204): 2.32 nM

SMILES: CNS(=O)(=O)Nc1nccc(Cc2cncc(Nc3ccc(Cl)cc3OC)c2C)c1F [Example 35, 4-[[5-(4-chloro-2-methoxy-anilino)-4-methyl-3-pyridyl]methyl]-3-fluoro-N-(methylsulfamoyl)pyridin-2-amine]
- IC50 (pMEK [1]): < 10 nM
- IC50 (pMEK [2]): < 10 nM
- IC50 (HCT116 cells): < 10 nM
- IC50 (IPC298 cells; Homo sapiens, IPC-298, 72 h): < 10 nM

SMILES: CNS(=O)(=O)Nc1nccc(Oc2cncc(Nc3ccc(Cl)cc3F)c2C)c1F [Example 15, N-(4-chloro-2-fluorophenyl)-5-({3-fluoro-2-[(methylsulfamoyl)amino]pyridin-4-yl}oxy)-4-methylpyridin-3-amine]
- IC50 (pMEK [1]): < 10 nM
- IC50 (pMEK [2]): < 10 nM
- IC50 (HCT116 cells): 10 to 100 nM
- IC50 (IPC298 cells; Homo sapiens, IPC-298, 72 h): < 10 nM

SMILES: CNS(=O)(=O)Nc1nccc(Cc2cncc(-c3ncccc3F)c2C)c1F [Example 31, 3-fluoro-4-[[5-(3-fluoro-2-pyridyl)-4-methyl-3-pyridyl]methyl]-N-(methylsulfamoyl)pyridin-2-amine]
- IC50 (pMEK [1]): > 1000 nM
- IC50 (pMEK [2]): > 1000 nM

SMILES: CNS(=O)(=O)Nc1nccc(Cc2cncc(Nc3cc4c(cc3F)OCCO4)c2C)c1F [Example 42, 3-fluoro-4-[[5-[(6-fluoro-2,3-dihydro-1,4-benzodioxin-7-yl)amino]-4-methyl-3-pyridyl]methyl]-N-(methylsulfamoyl)pyridin-2-amine]
- IC50 (pMEK [1]): < 10 nM
- IC50 (pMEK [2]): < 10 nM
- IC50 (HCT116 cells): 100 to 500 nM
- IC50 (IPC298 cells; Homo sapiens, IPC-298, 72 h): 10 to 100 nM
- IC50 (pERK Thr202/Tyr204): 0.791 nM

SMILES: C=CCOc1cncc(Cc2ccnc(NS(=O)(=O)NC)c2F)c1C [Example 30, 4-[(5-allyloxy-4-methyl-3-pyridyl)methyl]-3-fluoro-N-(methylsulfamoyl)pyridin-2-amine]
- IC50 (pMEK [1]): 10 to 100 nM
- IC50 (pMEK [2]): 10 to 100 nM

SMILES: CNS(=O)(=O)Nc1nccc(Cc2cncc(Nc3ccc(C(F)(F)F)cc3F)c2C)c1F [Example 8, 5-({3-fluoro-2-[(methylsulfamoyl)amino]pyridin-4-yl}methyl)-N-[2-fluoro-4-(trifluoromethyl)phenyl]-4-methylpyridin-3-amine]
- IC50 (pMEK [1]): < 10 nM
- IC50 (pMEK [2]): < 10 nM

SMILES: CNS(=O)(=O)Nc1nccc(Cc2cncc(Oc3ccc(Cl)cn3)c2C)c1F [Example 27, {[4-({5-[(5-chloropyridin-2-yl)oxy]-4-methylpyridin-3-yl}methyl)-3-fluoropyridin-2-yl]sulfamoyl}(methyl)amine]
- IC50 (pMEK [1]): < 10 nM
- IC50 (pMEK [2]): < 10 nM
- IC50 (HCT116 cells): 500 to 1000 nM
- IC50 (IPC298 cells; Homo sapiens, IPC-298, 72 h): 10 to 100 nM

SMILES: CNS(=O)(=O)Nc1nccc(Cc2cncc(Nc3ccc(Cl)cc3F)n2)c1F [Example 21, N-(4-chloro-2-fluoro-phenyl)-6-[[3-fluoro-2-(methylsulfamoylamino)-4-pyridyl]methyl]pyrazin-2-amine]
- IC50 (pMEK [1]): 10 to 100 nM
- IC50 (pMEK [2]): 10 to 100 nM
- IC50 (HCT116 cells): > 1000 nM
- IC50 (IPC298 cells; Homo sapiens, IPC-298, 72 h): 500 to 1000 nM

SMILES: CNS(=O)(=O)Nc1nccc(Cc2cncc(Oc3ccc(Cl)cc3F)n2)c1F [Example 40, 4-[[6-(4-chloro-2-fluoro-phenoxy)pyrazin-2-yl]methyl]-3-fluoro-N-(methylsulfamoyl)pyridin-2-amine]
- IC50 (pMEK [1]): > 1000 nM
- IC50 (pMEK [2]): > 1000 nM
- viability at 1000 µM (HCT116 cells; [3]): 101%
- IC50 (HCT116 cells): > 1000 nM
- viability at 100 µM (IPC298 cells; Homo sapiens, IPC-298, 72 h, read-out: CTG % cell viability 100 uM IPC298.2, IPC298 cells, 72 hours, 100 uM, percent cells remaining after treatment): 95.2%
- IC50 (IPC298 cells; Homo sapiens, IPC-298, 72 h): > 1000 nM
- IC50 (pERK Thr202/Tyr204): > 1000 nM

SMILES: Cc1c(Cc2ccc(S(C)(=O)=O)cc2F)cncc1Nc1ccc(Cl)cc1F [Example 20, N-(4-chloro-2-fluoro-phenyl)-5-[(2-fluoro-4-methylsulfonyl-phenyl)methyl]-4-methyl-pyridin-3-amine]
- IC50 (pMEK [1]): > 1000 nM
- IC50 (pMEK [2]): > 1000 nM

SMILES: CNS(=O)(=O)Nc1nccc(Cc2cncc(Nc3ccc(OC(F)(F)F)cc3F)c2C)c1F [Example 39]
- IC50 (pMEK [1]): < 10 nM
- IC50 (pMEK [2]): < 10 nM
- IC50 (HCT116 cells): 10 to 100 nM
- IC50 (IPC298 cells; Homo sapiens, IPC-298, 72 h): < 10 nM
- IC50 (pERK Thr202/Tyr204): 0.354 nM

SMILES: CNS(=O)(=O)Nc1nccc(Cc2c[n+]([O-])cc(Nc3ccc(Cl)cc3F)c2C)c1F [Example 14, 3-[(4-chloro-2-fluorophenyl)amino]-5-({3-fluoro-2-[(methylsulfamoyl)amino]pyridin-4-yl}methyl)-4-methylpyridin-1-ium-1-olate]
- IC50 (pMEK [1]): < 10 nM
- IC50 (pMEK [2]): < 10 nM

SMILES: Cc1c(Cc2ccnc(S(C)(=O)=O)c2F)cncc1Nc1ccc(F)cc1F [Example 17, N-(2,4-difluorophenyl)-5-[(3-fluoro-2-methanesulfonylpyridin-4-yl)methyl]-4-methylpyridin-3-amine]
- IC50 (pMEK [1]): > 1000 nM
- IC50 (pMEK [2]): 500 to 1000 nM
- CTG % cell viability 1000 uM HCT116.20 (HCT116 cells; HCT116 cells, 72 hours, 1000 uM, percent cells remaining after treatment): 83.74%
- viability at 1000 µM (HCT116 cells; [3]): 68.2%
- IC50 (HCT116 cells): > 1000 nM
- IC50 (IPC298 cells; Homo sapiens, IPC-298, 72 h): > 1000 nM
- CTG % cell viability 100 uM IPC298.2 (IPC298 cells; IPC298 cells, 72 hours, 100 uM, percent cells remaining after treatment): 72.73; % and 98.52%

SMILES: Cc1c(Cc2ccnc([S+](C)[O-])c2F)cncc1Nc1ccc(Br)cc1F (stereo not drawn) [Example 22]
- IC50 (pMEK [1]): < 10 nM
- IC50 (pMEK [2]): < 10 nM
- IC50 (HCT116 cells): 100 to 500 nM
- IC50 (IPC298 cells; Homo sapiens, IPC-298, 72 h): 10 to 100 nM

SMILES: CNS(=O)(=O)Nc1nccc(Cc2cncc(Nc3ccc(Cl)cc3F)c2F)c1F [Example 26, 4-[[5-(4-chloro-2-fluoro-anilino)-4-fluoro-3-pyridyl]methyl]-3-fluoro-N-(methylsulfamoyl)pyridin-2-amine]
- IC50 (pMEK [1]): < 10 nM
- IC50 (pMEK [2]): < 10 nM
- IC50 (HCT116 cells): 100 to 500 nM
- IC50 (IPC298 cells; Homo sapiens, IPC-298, 72 h): 10 to 100 nM

SMILES: CNS(=O)(=O)Nc1nccc(Cc2cncc(-c3ncc(Cl)cc3F)c2C)c1F [Example 32, 4-[[5-(5-chloro-3-fluoro-2-pyridyl)-4-methyl-3-pyridyl]methyl]-3-fluoro-N-(methylsulfamoyl)pyridin-2-amine]
- IC50 (pMEK [1]): > 1000 nM
- IC50 (pMEK [2]): > 1000 nM

SMILES: CNS(=O)(=O)Nc1nccc(C(C)c2cncc(Nc3ccc(Cl)cc3F)c2C)c1F (stereo not drawn) [Example 16]
- IC50 (pMEK [1]): 10 to 100 nM
- IC50 (pMEK [2]): 10 to 100 nM
- viability at 1000 µM (HCT116 cells; [3]): 36.5%
- IC50 (HCT116 cells): > 1000 nM
- IC50 (IPC298 cells; Homo sapiens, IPC-298, 72 h): 100 to 500 nM
